Measured values reported in patent US20070032404A1, “Methods for treating diabetes and related disorders using pde10a inhibitors” (Bayer Pharmaceuticals Corporation, priority 2003, published 2007).

Tests used:
PDE10A = PDE10A (Homo sapiens, UniProt Q9Y233); assay: PDE10A inhibition assay (SPA, 3H-cAMP); format: biochemical; settings: Table 2
Experimental: (§1) Test compounds and PDE10A enzyme in assay buffer are added to 96-well whitewall/clear bottom isoplates (Wallac). The reaction is initiated by the addition of ^3H-cAMP (Amersham) or ^3H-cGMP (Amersham). Following a 45-minute incubation at room temperature, the reaction is stopped by the addition of SPA yttrium silicate beads (Amersham). The samples are incubated for an additional 30 minutes, and the plates are read in the Microbeta (Wallac) for 30 seconds in the SPA mode. Data may be expressed as a percentage of control. To measure PDE2, PDE3A, PDE4B, and PDE10A activity, 3H-cAMP may be used as a substrate; and to measure PDE5 activity, 3H-cGMP may be used as a substrate.

PDE3A = PDE3A (Homo sapiens, UniProt Q14432); assay: PDE3A inhibition assay (SPA, 3H-cAMP); format: biochemical; settings: Table 2; read-out: PDE3 IC50
Experimental: as §1
(§2) These same compounds were run in inhibition assays for PDE2, PDE3A, PDE4B, and PDE5. […] The compounds are therefore selective for PDE10A.

PDE5 = PDE5 (Homo sapiens, UniProt O76074); assay: PDE5 inhibition assay (SPA, 3H-cGMP); format: biochemical; settings: Table 2
Experimental: as §1, §2

PDE2 = PDE2 (Homo sapiens, UniProt O00408); assay: PDE2 inhibition assay (SPA, 3H-cAMP); format: biochemical; settings: Table 2
Experimental: as §1, §2

[1] = test system: dispersed pancreatic islets; assay: Dispersed islet assay (insulin secretion); format: cell-based, rat; settings: 8 mM glucose, 0.3 μM forskolin, 30 minutes; control = 8 mM glucose and 0.3 μM forskolin
Experimental: Dispersed pancreatic islet isolation. Lean rats (male Sprague-Dawley, 200-250 g) are anesthetized with nembutal (60 mg/kg, i.p.) and the abdomen opened to expose the liver and pancreas. The pancreas is distended by injection of Hank's solution into the bile duct, and then the pancreas is excised and minced with scissors while in Hank's solution. After rinsing the tissue with buffer, the pancreas is digested for 10 minutes with collagenase, rinsed, and the islets separated from debris on a Ficoll gradient. The isolated islet fraction is then rinsed with buffer, incubated with EDTA for 8 minutes, followed by incubation with trypsin and DNAase I for an additional 10 minutes. The dispersed islets are transferred to culture media containing 8 mM glucose, seeded in “V-bottom” 96-well plates (2,500 cells per well), and cultured overnight.
For assaying insulinotropic compounds, the dispersed islets are pre-incubated in 3 mM glucose for 30 minutes. The islets are then transferred to media containing 8 mM glucose, test compounds, and 0.3 μM forskolin; and incubated for an additional 30 minutes. The media is then assayed for insulin content using, for example, a SPA assay. Insulin secretion is reported as fold over control (FOC), where the control is the amount of insulin secretion in the presence of 8 mM glucose and 0.3 μM forskolin.

PDE4B = PDE4B (Homo sapiens, UniProt Q07343); assay: PDE4B inhibition assay (SPA, 3H-cAMP); format: biochemical; settings: Table 2
Experimental: as §1, §2

PDE3A, sequence (Q14432 whole entry, species assumed): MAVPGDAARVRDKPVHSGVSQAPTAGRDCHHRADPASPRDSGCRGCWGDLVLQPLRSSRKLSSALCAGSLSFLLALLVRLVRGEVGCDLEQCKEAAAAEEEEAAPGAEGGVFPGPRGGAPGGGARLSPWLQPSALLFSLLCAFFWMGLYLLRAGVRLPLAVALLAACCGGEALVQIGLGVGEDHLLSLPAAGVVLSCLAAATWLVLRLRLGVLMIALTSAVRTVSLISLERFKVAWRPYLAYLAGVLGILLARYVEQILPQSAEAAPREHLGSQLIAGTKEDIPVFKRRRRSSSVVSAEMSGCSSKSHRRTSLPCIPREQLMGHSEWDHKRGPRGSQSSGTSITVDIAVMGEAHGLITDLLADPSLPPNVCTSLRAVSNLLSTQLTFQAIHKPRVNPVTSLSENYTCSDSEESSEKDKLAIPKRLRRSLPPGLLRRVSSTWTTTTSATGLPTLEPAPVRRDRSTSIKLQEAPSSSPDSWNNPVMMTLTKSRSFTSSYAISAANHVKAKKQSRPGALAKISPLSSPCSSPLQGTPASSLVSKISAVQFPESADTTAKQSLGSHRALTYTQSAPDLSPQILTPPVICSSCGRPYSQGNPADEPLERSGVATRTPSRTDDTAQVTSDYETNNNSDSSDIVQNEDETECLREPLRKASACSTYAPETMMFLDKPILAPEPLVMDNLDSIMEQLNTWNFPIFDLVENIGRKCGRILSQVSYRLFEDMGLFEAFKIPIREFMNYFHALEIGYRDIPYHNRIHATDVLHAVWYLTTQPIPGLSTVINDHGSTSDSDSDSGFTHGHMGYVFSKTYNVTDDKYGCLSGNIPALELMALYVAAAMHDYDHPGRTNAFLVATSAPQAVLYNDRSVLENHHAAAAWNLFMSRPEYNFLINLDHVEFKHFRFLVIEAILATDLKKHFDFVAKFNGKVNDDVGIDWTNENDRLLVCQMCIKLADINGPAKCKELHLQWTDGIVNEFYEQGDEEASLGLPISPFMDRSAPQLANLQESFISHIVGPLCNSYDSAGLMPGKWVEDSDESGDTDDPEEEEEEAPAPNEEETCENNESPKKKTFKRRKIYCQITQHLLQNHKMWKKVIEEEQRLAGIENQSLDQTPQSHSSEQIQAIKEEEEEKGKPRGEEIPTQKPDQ
PDE10A, sequence (Q9Y233 whole entry, species assumed): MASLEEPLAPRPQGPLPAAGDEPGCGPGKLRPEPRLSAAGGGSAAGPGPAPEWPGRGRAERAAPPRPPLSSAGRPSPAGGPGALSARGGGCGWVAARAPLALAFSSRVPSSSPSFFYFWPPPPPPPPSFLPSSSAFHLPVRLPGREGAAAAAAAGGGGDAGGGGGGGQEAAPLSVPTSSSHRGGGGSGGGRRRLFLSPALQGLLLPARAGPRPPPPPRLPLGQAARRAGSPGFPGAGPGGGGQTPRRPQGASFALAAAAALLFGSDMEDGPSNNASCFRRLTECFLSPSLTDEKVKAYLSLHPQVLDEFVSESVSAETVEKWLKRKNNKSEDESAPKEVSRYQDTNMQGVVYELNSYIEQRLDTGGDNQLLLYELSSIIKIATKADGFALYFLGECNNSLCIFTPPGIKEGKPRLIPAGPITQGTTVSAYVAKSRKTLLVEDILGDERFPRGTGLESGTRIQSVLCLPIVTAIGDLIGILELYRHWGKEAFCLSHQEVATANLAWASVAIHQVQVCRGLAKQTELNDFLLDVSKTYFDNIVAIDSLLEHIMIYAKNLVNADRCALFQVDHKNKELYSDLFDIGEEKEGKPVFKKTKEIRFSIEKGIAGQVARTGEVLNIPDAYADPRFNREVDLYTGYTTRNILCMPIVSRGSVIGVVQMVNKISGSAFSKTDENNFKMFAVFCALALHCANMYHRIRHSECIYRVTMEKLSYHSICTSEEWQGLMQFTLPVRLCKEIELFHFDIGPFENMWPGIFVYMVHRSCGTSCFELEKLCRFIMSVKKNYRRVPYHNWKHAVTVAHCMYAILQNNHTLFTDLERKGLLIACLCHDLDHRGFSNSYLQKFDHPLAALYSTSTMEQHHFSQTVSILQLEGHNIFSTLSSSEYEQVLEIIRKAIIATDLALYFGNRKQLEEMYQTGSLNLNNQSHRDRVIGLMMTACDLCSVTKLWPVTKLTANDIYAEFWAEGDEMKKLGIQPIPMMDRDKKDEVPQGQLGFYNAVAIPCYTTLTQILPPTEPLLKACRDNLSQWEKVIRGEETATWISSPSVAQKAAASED
PDE2, sequence (O00408 whole entry): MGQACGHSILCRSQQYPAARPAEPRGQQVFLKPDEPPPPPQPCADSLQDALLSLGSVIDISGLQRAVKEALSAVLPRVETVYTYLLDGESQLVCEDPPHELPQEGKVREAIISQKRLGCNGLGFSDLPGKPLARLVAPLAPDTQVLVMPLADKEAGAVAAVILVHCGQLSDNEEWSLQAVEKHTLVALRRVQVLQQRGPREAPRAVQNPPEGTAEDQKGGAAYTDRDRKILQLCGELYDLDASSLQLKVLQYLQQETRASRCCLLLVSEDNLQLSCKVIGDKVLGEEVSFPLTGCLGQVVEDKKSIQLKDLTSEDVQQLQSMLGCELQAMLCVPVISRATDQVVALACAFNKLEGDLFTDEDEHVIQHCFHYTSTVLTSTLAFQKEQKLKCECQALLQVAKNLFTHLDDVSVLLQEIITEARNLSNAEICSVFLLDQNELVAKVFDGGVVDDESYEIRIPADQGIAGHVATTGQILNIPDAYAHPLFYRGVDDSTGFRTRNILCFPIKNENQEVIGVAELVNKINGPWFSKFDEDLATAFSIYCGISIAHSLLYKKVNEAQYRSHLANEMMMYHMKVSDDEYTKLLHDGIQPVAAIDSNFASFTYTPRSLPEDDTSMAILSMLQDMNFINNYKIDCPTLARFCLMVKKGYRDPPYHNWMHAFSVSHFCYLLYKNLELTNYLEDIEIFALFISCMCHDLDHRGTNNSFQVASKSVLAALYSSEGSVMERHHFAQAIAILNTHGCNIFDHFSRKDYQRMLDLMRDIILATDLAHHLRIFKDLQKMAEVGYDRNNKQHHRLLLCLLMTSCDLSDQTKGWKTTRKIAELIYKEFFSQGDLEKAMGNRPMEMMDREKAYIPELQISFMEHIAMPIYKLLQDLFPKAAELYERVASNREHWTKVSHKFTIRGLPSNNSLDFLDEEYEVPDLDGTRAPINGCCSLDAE
PDE4B, sequence (Q07343 whole entry, species assumed): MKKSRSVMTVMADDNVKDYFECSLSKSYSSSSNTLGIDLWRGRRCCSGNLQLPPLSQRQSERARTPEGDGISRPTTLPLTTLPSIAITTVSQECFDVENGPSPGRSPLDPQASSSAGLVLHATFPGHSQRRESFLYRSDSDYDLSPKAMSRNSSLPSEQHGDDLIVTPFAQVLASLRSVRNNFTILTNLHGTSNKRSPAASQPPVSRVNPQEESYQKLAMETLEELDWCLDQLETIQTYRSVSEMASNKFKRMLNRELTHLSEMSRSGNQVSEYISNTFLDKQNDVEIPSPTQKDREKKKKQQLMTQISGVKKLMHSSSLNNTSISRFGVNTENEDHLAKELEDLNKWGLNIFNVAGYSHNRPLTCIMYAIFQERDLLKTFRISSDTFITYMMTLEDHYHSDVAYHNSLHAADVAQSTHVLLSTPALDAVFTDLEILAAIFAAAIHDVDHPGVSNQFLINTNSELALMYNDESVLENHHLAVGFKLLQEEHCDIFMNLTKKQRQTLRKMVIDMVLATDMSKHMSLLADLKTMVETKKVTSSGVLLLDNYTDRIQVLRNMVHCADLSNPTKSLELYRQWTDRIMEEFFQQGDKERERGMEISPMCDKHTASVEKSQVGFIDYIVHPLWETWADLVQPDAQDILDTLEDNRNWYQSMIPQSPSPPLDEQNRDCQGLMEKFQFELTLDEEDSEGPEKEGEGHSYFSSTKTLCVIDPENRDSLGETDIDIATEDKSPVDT

| Compound | IC50 (PDE10A) [nM] | IC50 (PDE3A) [µM] | IC50 (PDE5) [µM] | IC50 (PDE2) [µM] | Insulin secretion, Fold-over-Control (FOC) [1] | IC50 (PDE4B) [µM] |
| --- | --- | --- | --- | --- | --- | --- |
| CCOC(=O)c1c(-c2ccc(OC)cc2OC)c(C)n2c1-c1cc(OC)c(OC)cc1CC2 [B] | 32.7 | > 10 | > 10 | > 10 | 1.44 | – |
| CCOC(=O)c1c(-c2ccc(OC)c(OC)c2)c(C)n2c1-c1cc(OC)c(OC)cc1CC2 [C] | 26.3 | > 10 | > 10 | > 10 | 1.48 | > 10 |
| CCOC(=O)c1c(-c2ccc(O)c3ncccc23)c(C)n2c1-c1cc(OC)c(OC)cc1CC2 [Compound A] | 30 | > 10 | – | – | 1.4 | – |
